Source: patent publication US20250049775A1, “USE OF AMINOPYRAZOLE COMPOUNDS” (Intervet Inc., priority 2021, published 2025)

How the values were obtained:
[1] = test system: pruritus and lesions of allergic or atopic dermatitis; conditions: cited from earlier work
[2] = cited from earlier work
cIL-31 induced pruritus [3] = conditions: prior treatment, Beagle dogs, Gonzales et al. 2016; cited from earlier work
Tmax after oral dosing = type: in vivo, Beagle dog; conditions: laboratory Beagle dogs
Method: (§1) Using a randomized, non-blinded, cross-over study design, Compound 1 (1 mg/kg body weight), Apoquel®, or placebo was dosed orally to laboratory Beagle dogs 2 h prior to a cIL-31 challenge (approximate Tmax of Compound 1 and Apoquel®).

cIL-31 induced pruritus [4] = test: canine interleukin-31 (cIL-31) induced pruritus model; type: in vivo, Beagle dog
From the text: A canine interleukin-31 (cIL-31) induced pruritus model in the Beagle dog was used to inform on the dose of Compound 1 required to inhibit JAK1 signaling in vivo. The cIL-31 induced pruritus model is a relevant model of acute pruritus associated with atopic and allergic dermatitis in dogs. The magnitude of the suppression of cIL-31 induced pruritus by JAK inhibitors is predictive of their pruritus suppression in patients with allergic or atopic dermatitis As a measure of JAK-1 inhibition in vivo, and by extension the anticipated clinical efficacy of Compound 1, we evaluated Compound 1 in a relevant pharmacodynamic model and included a clinical reference.
as §1
In a second study using a randomized, non-blinded crossover design, several doses of Compound 1 were evaluated (0.5, 0.1 and 0.05 mg/kg body weight); Apoquel® and placebo treatments were also included.

[5] = pilot Target Animal Safety (margin of safety) study, oral, 4 months; type: in vivo, Beagle dog
Method: A pilot Target Animal Safety study has been performed.
The objective of this study was to provide margin of safety information on Compound 1 at 1, 3 and 5 times the maximum recommended commercial dose (0.6 mg/kg body weight twice daily for two weeks and once daily thereafter (BID), or 1.2 mg/kg body weight daily (SID)) in 8-month-old Beagle dogs (at initiation of dosing), when given orally for 4 months (112 consecutive days). The clinical loading phase of 2 weeks for the BID treatment schedule was prolonged to 6 weeks in this study in accordance with VICH GL43 (3 times the proposed duration).
The test item was the final formulation blend of the investigational veterinary product, filled into gelatine capsules for dose administration. The control article was blank (empty) gelatine capsules.
In addition to that, a 4-month pilot target animal safety study has been conducted in 6-months old dogs utilizing either doses of 0.6, 1.8 or 3.0 mg/kg twice daily over the first 6 weeks (loading phase) and reducing to once daily thereafter (BID), or a dose of 6.0 mg/kg administered once daily over the whole study period (SID) compared to a control group, using 3 males and 3 females per group (Robertson, 2021).

[6] = dogs with allergic or atopic dermatitis, Cosgrove et al. 2013

oclacitinib maleate [Apoquel]
effect on lesions [1, 6]: reduces lesions | effect on pruritus [1, 6]: rapid amelioration of pruritus | haematology effect ([1]; higher doses, FOI Summary NADA 141-345, Gonzales et al. 2014): reduction in hematocrit, hemoglobin, and reticulocyte counts | dogs requiring euthanasia ([2]; after 4 months, 0, 1, 3, 5 times 0.6 mg/kg twice per day, dogs about 6 months old): two dogs required euthanasia | age dependence of adverse clinical effects ([2]; dog, in vivo): most severe adverse clinical effects were observed in dogs aged less than one year | deaths from infection secondary to immunosuppression ([2]; including one death 28 days after discontinuation): two deaths | adverse finding attributed to treatment-related immunosuppression ([2]; several dogs in the mid and high dose groups): clinical demodicosis | inhibition of cIL-31 induced pruritic response (cIL-31 induced pruritus [3]): can be inhibited | approximate Tmax (Tmax after oral dosing): ~2 h

COc1cc(Nc2nn([C@H]3COCC[C@@H]3C#N)cc2C(N)=O)cc(F)n1 (single isomer, unassigned) [Compound 1, 1-((3R,4S) or (3S,4R)-4-cyanotetrahydro-2H-pyran-3-yl)-3-((2-fluoro-6-methoxypyridin-4-yl)amino)-1H-pyrazole-4-carboxamide)]
suppression of cIL-31 induced pruritus (cIL-31 induced pruritus [4]; 0.05 mg/kg body weight, second study): not | suppression of cIL-31 induced pruritus (cIL-31 induced pruritus [4]; 0.1 mg/kg body weight, second study): not | suppression of cIL-31 induced pruritus (cIL-31 induced pruritus [4]; 0.5 mg/kg body weight, second study): significantly suppressed | magnitude of effect compared with Apoquel (cIL-31 induced pruritus [4]; 0.5 mg/kg, second study): similar | suppression of cIL-31 induced pruritus (cIL-31 induced pruritus [4]; 1 mg/kg body weight oral, 2 h prior to cIL-31 challenge, observed 2 h): significantly suppressed | changes in body weight, food consumption, ophthalmic examinations, electrocardiology or blood pressure ([5]; all doses, male and female dogs, oral, 4 months): no changes | tolerability ([5]; daily oral, up to 5 times the recommended maximum commercial dose of 1.2 mg/kg body weight (BID or SID), 6-month-old beagle dogs): well tolerated | clinical findings ([5]; overdosed animals): Minor clinical findings (e.g., interdigital cysts, conjunctivitis, gingivitis, diarrhoea) | susceptibility to minor infections ([5]; recommended maximum commercial dose): no increased susceptibility to minor infections | susceptibility to minor infections ([5]; repeated overdoses): increased susceptibility to minor infections | overall safety conclusion ([5]; young dogs): safe for use in young dogs | Tmax (Tmax after oral dosing; dog, in vivo, 1 mg/kg body weight, read-out: approximate Tmax): ~2 h
